The text below walks through data of ChEMBL document CHEMBL1201862, “PubChem BioAssay data set” (2004).

Some test systems named below: A498; COLO 205; HT-29; KM12; LOX IMVI; MDA-MB-231; NCI-H23; RPMI-8226; SF-268; SF-539; SK-MEL-28; SK-MEL-2; SK-MEL-5; SNB-75; SR; TK-10; IGROV-1; OVCAR-8; BT-549.
Holding throughout (experiment): DTP human tumour cell line panel, 48 h

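48-hour exposure; five concentrations; linearly interpolated endpoints. The concentration for 50% growth inhibition is given as GI50.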 Calls of active or inactive are those of the source. No stated cut-off is given here; in the data, active = GI50 up to about 1.1 µM and inactive = higher. Where only a bound is given, the exact number is not on record here.

The GI50 is the concentration giving 50% growth inhibition. Take `O=c1ssc2ncccc12`: the GI50 is 59.3 µM (inactive) in the assay with A498; 17.9 µM (inactive) in the assay with COLO 205; 23.6 µM (inactive) in the assay with HT-29; 20.1 µM (inactive) in the assay with KM12; 16.3 µM (inactive) in the assay on LOX IMVI; 11.9 µM (inactive) with MDA-MB-231. For the same compound, the GI50 was 28.8 µM (inactive) in the assay on NCI-H23; 12.9 µM (inactive) in the assay with RPMI-8226; 22.1 µM (inactive) in the assay on SF-268; 30.3 µM (inactive) with SF-539; 24.8 µM (inactive) with SK-MEL-28; 10.4 µM (inactive) in the assay on SK-MEL-2. The GI50 in the assay with SK-MEL-5 is 13.2 µM (inactive); in the assay on SNB-75, 14.4 µM (inactive); in the assay with SR, 48.2 µM (inactive); in the assay with TK-10, 35.5 µM (inactive).
Regarding `CC(=O)OCC1OC(n2c(C)c(C(C)=O)c(-c3cccc4ccccc34)c(C#N)c2=S)C(OC(C)=O)C(OC(C)=O)C1OC(C)=O` (centres undefined), the GI50 in the assay with A498, in the assay with COLO 205, in the assay on HT-29, in the assay on IGROV-1, with KM12 and with LOX IMVI was > 100 µM (inactive) in each case. Besides, the GI50 with MDA-MB-231, with NCI-H23, in the assay with OVCAR-8, with SF-268, in the assay on SF-539 and in the assay on SK-MEL-28 was > 100 µM (inactive) each time. For the same compound, the GI50 in the assay on SK-MEL-2 is > 100 µM (inactive); with SK-MEL-5, 28.7 µM (inactive); with SNB-75, 25.9 µM (inactive); with SR, > 100 µM (inactive); with TK-10, > 100 µM (inactive).
Regarding `O=C(NC(CCCCN1C(=O)c2ccccc2C1=O)P(=O)(Oc1ccccc1)Oc1ccccc1)OCc1ccccc1` (centres undefined), the GI50 in the assay with BT-549 was > 100 µM (inactive); with COLO 205, > 100 µM (inactive); in the assay with HT-29 it was > 100 µM (inactive); with IGROV-1 it was > 100 µM (inactive); in the assay on KM12, > 100 µM (inactive); with NCI-H23, 7.33 µM (inactive). The GI50 in the assay on OVCAR-8, with RPMI-8226, in the assay with SF-268, in the assay on SF-539, in the assay with SK-MEL-28 and in the assay with SK-MEL-2 was > 100 µM (inactive) each time. The GI50 was > 100 µM (inactive) in the assay on SK-MEL-5, 0.01 µM (active) in the assay with SNB-75, > 100 µM (inactive) with SR and > 100 µM (inactive) with TK-10.
Regarding `CC(C)(C)Nc1noc(=O)n1C(C)(C)C`, the GI50 in the assay with A498, with COLO 205, with HT-29, in the assay with IGROV-1, in the assay on KM12 and in the assay with LOX IMVI was > 100 µM (inactive) in each case. Further, the GI50 in the assay with MDA-MB-231, with NCI-H23, with OVCAR-8, in the assay with RPMI-8226, with SF-268 and with SF-539 was > 100 µM (inactive) in each case. Besides, the GI50 with SK-MEL-28, in the assay on SK-MEL-2, in the assay on SK-MEL-5, in the assay with SNB-75, in the assay with SR and in the assay on TK-10 was > 100 µM (inactive) each time.
As to `O=C1CCCc2cc3c(cc21)CC1(C3)Cc2ccc3c(c2C1)C(=O)CCC3` (centres undefined), the GI50 with A498 was 41.2 µM (inactive); with COLO 205, 14.4 µM (inactive); in the assay with HT-29, 16.3 µM (inactive); in the assay on IGROV-1 it was 20.5 µM (inactive); in the assay on KM12, 14 µM (inactive); with LOX IMVI, 11.7 µM (inactive). Further, the GI50 with MDA-MB-231 is 29.2 µM (inactive); with NCI-H23, 22.5 µM (inactive); in the assay on OVCAR-8, 16.4 µM (inactive); in the assay with RPMI-8226, 7.59 µM (inactive); with SF-268 it was 21.9 µM (inactive); in the assay with SF-539, 28.3 µM (inactive). Further, the GI50 in the assay on SK-MEL-28 was 26.1 µM (inactive); with SK-MEL-2 it was 24.2 µM (inactive); in the assay on SK-MEL-5, 2.2 µM (inactive); with SNB-75, 15.5 µM (inactive); in the assay on SR it was 7.45 µM (inactive); with TK-10 it was 23.9 µM (inactive).
As to `C[C@@]12[C@H]3CC[C@@H]1[C@H](O)C(=O)N2CC3`, the GI50 in the assay on A498, with COLO 205, in the assay on HT-29, in the assay with IGROV-1, in the assay on KM12 and with LOX IMVI was > 100 µM (inactive) in each case. Further, the GI50 in the assay on MDA-MB-231, with NCI-H23, in the assay on OVCAR-8, in the assay on RPMI-8226, in the assay with SF-268 and in the assay with SF-539 was > 100 µM (inactive) each time. The GI50 in the assay with SK-MEL-28, with SK-MEL-2, in the assay on SK-MEL-5, with SNB-75, in the assay on SR and with TK-10 was > 100 µM (inactive) throughout.
As for `CCOC(=O)CCC(NC(=O)OCc1ccccc1)C(=O)NC(CCC(=O)OCC)C(=O)NC(CCC(=O)OCC)C(=O)NC(CCC(=O)OCC)C(=O)NC(CCC(=O)OCC)C(=O)OCC` (centres undefined), the GI50 in the assay on BT-549, in the assay with COLO 205, in the assay on HT-29, in the assay with IGROV-1, in the assay on KM12 and with LOX IMVI was > 100 µM (inactive) each time. Moreover, the GI50 with NCI-H23, in the assay on OVCAR-8, in the assay on RPMI-8226, in the assay with SK-MEL-28, with SK-MEL-2 and with SK-MEL-5 was > 100 µM (inactive) in each case. Further, the GI50 in the assay on SNB-75, with SR and with TK-10 was > 100 µM (inactive) each time.
Regarding `N#CCCN(CCC#N)c1ccc(/C=C2\N=C(c3ccccc3)N(NC(=O)c3ccncc3)C2=O)cc1`, the GI50 in the assay with A498, with BT-549, in the assay on COLO 205, in the assay with HT-29, with IGROV-1 and with KM12 was > 100 µM (inactive) in each case. Further, the GI50 in the assay with LOX IMVI, with MDA-MB-231, in the assay on OVCAR-8, in the assay with RPMI-8226, in the assay on SF-268 and in the assay on SF-539 was > 100 µM (inactive) in each case. Moreover, the GI50 with SK-MEL-28, with SK-MEL-2, in the assay on SK-MEL-5 and with TK-10 was > 100 µM (inactive) throughout.
